Columns and labels:
[1] = tested on: serpin protein in B. longum subsp. longum strains; test: Serpin protein level by ELISA in B. longum subsp. longum strains grown on glucose or LNT; assay type: cell-based, Bifidobacterium longum subsp longum; conditions: 0.5% LNT vs 0.5% glucose, 16 h, all tested strains, FIG. 2
Description: 48-well microtiter plate with pH sensor and dissolved oxygen (DO) sensor were used to culture the strains in Biolector [MUT]-labs Aachen, Germany). It was continuously shaken to prevent bacteria aggregation for 16 h. Cultures were harvested by centrifugation and supernatant was removed. Pellet was resuspended in PBS supplemented with halt protease inhibitor (Sigma) and lysed using glassbeads. Lysate containing both soluble and insoluble material was then collected. Total protein content was measured using Pierce BCA kit (Thermofisher) and serpin protein concentration was determined using ELISA. […] All strains were cultured in Biolector (according to example 1) in a MRSc base without sugar, to which 0.5% glucose or 0.5% of LNT was added. Cultures were grown for 16 h and harvested. Obtained pellets were further analyzed for total and serpin protein content (see example 1).

[2] = tested on: B. longum strain CNCM I-2618 (NCC 2705); test: Growth of B. longum NCC 2705 in Biolector on MRSc base without sugar plus HMO; assay type: cell-based, Bifidobacterium longum subsp longum; conditions: HMO 0.5 wt % in MRSc base without sugar, anaerobic, 37° C., 16 h
Description: (§1) B. longum strain CNCM I-2618 (NCC 2705) was grown in Biolector (growth conditions—anaerobic, 37° C.) in MRS+5 mM L-cysteine (MRSc) base without sugar, to which different commercially available Human Milk Oligosaccharides (HMOs) were added at a concentration of 0.5 wt %.
(§2) 48-well microtiter plate with pH sensor and dissolved oxygen (DO) sensor were used to culture the strains in Biolector (m2p-labs Aachen, Germany). It was continuously shaken to prevent bacteria aggregation for 16 h. Cultures were harvested by centrifugation and supernatant was removed. Pellet was resuspended in PBS supplemented with halt protease inhibitor (Sigma) and lysed using glassbeads. Lysate containing both soluble and insoluble material was then collected. Total protein content was measured using Pierce BCA kit (Thermofisher) and serpin protein concentration was determined using ELISA.

[3] = tested on: serpin protein in B. longum NCC 2705; test: Serpin protein level by ELISA in B. longum NCC 2705 grown on HMOs; assay type: cell-based, Bifidobacterium longum subsp longum; conditions: HMO 0.5 wt %, 16 h, FIG. 1
Description: as §1, §2

[4] = tested on: B. longum subsp. longum strains; test: Growth of B. longum subsp. longum strains on LNT as sole carbohydrate source; assay type: cell-based, Bifidobacterium longum subsp longum; conditions: 0.5% LNT in MRSc base without sugar, 16 h, all tested B. longum subsp. longum strains
Description: as §1, §2
The serpin encoding gene and its surrounding is highly conserved within the B. longum subsp. longum species. Strains of B. longum subsp. longum were selected to represent the entire span of the genetic phylogenetic tree (Table 2). All strains were cultured in Biolector (according to example 1) in a MRSc base without sugar, to which 0.5% glucose or 0.5% of LNT was added. Cultures were grown for 16 h and harvested. Obtained pellets were further analyzed for total and serpin protein content (see example 1).

[5] = tested on: serpin in Bifidobacterium longum subsp longum; test: Serpin induction by LNT in culture medium containing glucose; assay type: cell-based; conditions: only when the glucose is present at levels allowing its depletion during fermentation
From the text: LNT may be added to a conventional culture medium comprising up to 8 wt %, preferably up to 6 wt %, for example up to 4 wt %, of another sugar suitable to sustain B. longum growth, such as, but not limited to, glucose. […] Preferably the culture medium at the end of the fermentation contains less than 0.4 wt % glucose, such as from 0 wt % to 0.3 wt % glucose, for example from 0.02 wt % to 0.4 wt %, or from about 0.05 wt % to about 0.3 wt %. Conventional culture mediums suitable for growth of B. longum are well known to the person skilled in the art.

CC(=O)N[C@H]1[C@H](O[C@H]2[C@@H](O)[C@@H](CO)O[C@@H](O[C@H]3[C@H](O)[C@@H](O)C(O)O[C@@H]3CO)[C@@H]2O)O[C@H](CO)[C@@H](O)[C@@H]1O[C@@H]1O[C@H](CO)[C@H](O)[C@H](O)[C@H]1O (some centres unmarked) [LNT, Lacto-N-tetraose]
serpin protein levels in B. longum subsp. longum strains [1]: increased | support of growth of B. longum NCC 2705 [2]: the only one supporting the growth | levels of serpin protein in B. longum NCC 2705 [3]: significantly increase | growth on LNT as sole carbohydrate source [4]: able to grow | induction of serpin production when glucose is present [5]: can induce production of serpin

— patent US20230256036A1, “SERPIN PRODUCTION” (SOCIETE DES PRODUITS NESTLE S.A., priority 2020, published 2023)
